The numbers were not newly measured in patent US6521028B1, “Low hazard corrosion inhibitors and cleaning solutions using quaternary ammonium salts” (HydroChem Industrial Services, Inc., priority 1996, dated 2003), which cites them from elsewhere.

Experiment in data set [1]: not given
The source holds these as a separate data set.

As for `NC(N)=S` [thiourea], the “LD50 (oral rats)” value is 125 mg/kg.
For the molecule `CC(C)O` [Isopropanol, isopropanol], the “amount fatal to humans” value in data set [1] was at least 100 mL.
On to `COC(C)COC(C)CO` (stereo not drawn) [dipropylene glycol methyl ether], for which the “LD50 (oral rats)” value is reported as 5130 mg/kg.
